Laboratory results from ChEMBL document CHEMBL5696441 (Nat Chem Biol, 2011).

Legend:
[1] = target: Mitogen-activated protein kinase 13 (Homo sapiens) (UniProt O15264); experiment: Inhibition of P38delta (unknown origin) assessed as remaining activity at 1 uM by Kinome scan method relative to control
[2] = target: Inhibitor of nuclear factor kappa-B kinase subunit epsilon (Homo sapiens) (UniProt Q14164); experiment: Inhibition of IKK-epsilon (unknown origin) assessed as remaining activity at 1 uM by Kinome scan method relative to control
[3] = target: Mitogen-activated protein kinase kinase kinase kinase 4 (Homo sapiens) (UniProt O95819); experiment: Inhibition of human MAP4K4 assessed as residual activity at 1 uM using casein as substrate in presence of 33P-ATP by ProQinase assay relative to control
[4] = tested on: Fibroblast growth factor receptor 1 (Homo sapiens), P11362 [V561M]; experiment: Inhibition of human FGFR1 V561M mutant assessed as residual activity at 1 uM using Poly(Ala,Glu,Lys,Tyr)6:2:5:1 as substrate in presence of 33P-ATP by ProQinase assay relative to control
[5] = tested on: Proto-oncogene tyrosine-protein kinase receptor Ret (Homo sapiens), P07949 [Y791F]; experiment: Inhibition of human RET Y791F mutant assessed as residual activity at 1 uM using polyEY as substrate in presence of 33P-ATP by ProQinase assay relative to control
[6] = target: Eukaryotic elongation factor 2 kinase (Homo sapiens) (UniProt O00418); experiment: Inhibition of human EEF2K assessed as residual activity at 1 uM using RBER-GSK3 as substrate in presence of 33P-ATP by ProQinase assay relative to control
[7] = tested on: Dual specificity mitogen-activated protein kinase kinase 6 (Homo sapiens), P52564 [S207D,T211D]; experiment: Inhibition of human MKK6 S207D/T211D double mutant assessed as residual activity at 1 uM using p38-alpha KA as substrate in presence of 33P-ATP by ProQinase assay relative to control
[8] = target: Cyclin-dependent kinase 8 (Homo sapiens) (UniProt P49336); experiment: Inhibition of CDK8 (unknown origin) assessed as remaining activity at 1 uM by Kinome scan method relative to control
[9] = target: Serine/threonine-protein kinase TAO2 (Homo sapiens) (UniProt Q9UL54); experiment: Inhibition of human TAOK2 assessed as residual activity at 1 uM using casein as substrate in presence of 33P-ATP by ProQinase assay relative to control
[10] = target: Mitogen-activated protein kinase kinase kinase 3 (Homo sapiens) (UniProt Q99759); experiment: Inhibition of human MEKK3 assessed as residual activity at 1 uM using casein as substrate in presence of 33P-ATP by ProQinase assay relative to control
[11] = Anti-inflammatory activity against human derived high respond PBMC cells assessed as inhibition in stimulated TNF-alpha cytokine release incubated for 2 hrs in the presence of LPS/SEB/aCD28 by Luminex based sandwich immunoassay; format: functional, cell-based
[12] = target: Serine/threonine-protein kinase 24 (Homo sapiens) (UniProt Q9Y6E0); experiment: Inhibition of human MST3 assessed as residual activity at 1 uM using casein as substrate in presence of 33P-ATP by ProQinase assay relative to control
[13] = target: Platelet-derived growth factor receptor beta (Homo sapiens) (UniProt P09619); experiment: Inhibition of human PDGFRbeta assessed as residual activity at 1 uM using poly(Ala,Glu,Lys,Tyr) as substrate in presence of 33P-ATP by ProQinase assay relative to control
[14] = tested on: Epidermal growth factor receptor (Homo sapiens), P00533 [G719S]; experiment: Inhibition of human EGFR G719S mutant assessed as residual activity at 1 uM using PolyEY as substrate in presence of 33P-ATP by ProQinase assay relative to control
[15] = target: LIM domain kinase 2 (Homo sapiens) (UniProt P53671); experiment: Inhibition of human LIMK2 assessed as residual activity at 1 uM using CFL1 as substrate in presence of 33P-ATP by ProQinase assay relative to control
[16] = target: Tyrosine-protein kinase ABL2 (Homo sapiens) (UniProt P42684); experiment: Inhibition of human ABL2 assessed as residual activity at 1 uM using Poly(Ala,Glu,Lys,Tyr)6:2:5:1 as substrate in presence of 33P-ATP by ProQinase assay relative to control
[17] = Anti-inflammatory activity against human derived high respond PBMC cells assessed as inhibition in stimulated MCP-1 chemokine release at 10 uM incubated for 2 hrs in the presence of LPS/SEB/aCD28 by Luminex based sandwich immunoassay relative to control; format: functional
[18] = target: Tyrosine-protein kinase Fgr (Homo sapiens) (UniProt P09769); experiment: Inhibition of FGR (unknown origin) assessed as remaining activity at 1 uM by Kinome scan method relative to control
[19] = target: CDK6/cyclin D1 (Homo sapiens) (UniProt P24385+Q00534); experiment: Inhibition of human CDK6/CycD1 assessed as residual activity at 1 uM using RBER-CHKtide as substrate in presence of 33P-ATP by ProQinase assay relative to control; format: protein-complex assay
[20] = target: Tyrosine-protein kinase receptor UFO (Homo sapiens) (UniProt P30530); experiment: Inhibition of human AXL assessed as residual activity at 1 uM using polyEy as substrate in presence of 33P-ATP by ProQinase assay relative to control
[21] = target: STE20-like serine/threonine-protein kinase (Homo sapiens) (UniProt Q9H2G2); experiment: Inhibition of human SLK assessed as residual activity at 1 uM using RB-S6P as substrate in presence of 33P-ATP by ProQinase assay relative to control
[22] = target: Homeodomain-interacting protein kinase 1 (Homo sapiens) (UniProt Q86Z02); experiment: Inhibition of HIPK1 (unknown origin) assessed as remaining activity at 1 uM by Kinome scan method relative to control
[23] = target: Cytoplasmic tyrosine-protein kinase BMX (Homo sapiens) (UniProt P51813); experiment: Inhibition of BMX (unknown origin) assessed as remaining activity at 1 uM by Kinome scan method relative to control
[24] = tested on: Hepatocyte growth factor receptor (Homo sapiens), P08581 [Y1230H]; experiment: Inhibition of human MET Y1230H mutant assessed as residual activity at 1 uM using poly(Ala,Glu,Lys,Tyr)6:2:5:1 as substrate in presence of 33P-ATP by ProQinase assay relative to control
[25] = target: Inhibitor of nuclear factor kappa-B kinase subunit beta (Homo sapiens) (UniProt O14920); experiment: Inhibition of human IKKbeta assessed as residual activity at 1 uM using RBER-CHKtide as substrate in presence of 33P-ATP by ProQinase assay relative to control
[26] = tested on: Tyrosine-protein kinase ABL1 (Homo sapiens), P00519 [E255K]; experiment: Inhibition of human ABL1 E255K mutant assessed as residual activity at 1 uM using Poly(Ala,Glu,Lys,Tyr)6:2:5:1 as substrate in presence of 33P-ATP by ProQinase assay relative to control
[27] = target: Ephrin type-A receptor 4 (Homo sapiens) (UniProt P54764); experiment: Inhibition of EPHA4 (unknown origin) assessed as remaining activity at 1 uM by Kinome scan method relative to control

Sequence of Tyrosine-protein kinase ABL1 (Homo sapiens), P00519 [E255K] (P00519 whole entry E255K): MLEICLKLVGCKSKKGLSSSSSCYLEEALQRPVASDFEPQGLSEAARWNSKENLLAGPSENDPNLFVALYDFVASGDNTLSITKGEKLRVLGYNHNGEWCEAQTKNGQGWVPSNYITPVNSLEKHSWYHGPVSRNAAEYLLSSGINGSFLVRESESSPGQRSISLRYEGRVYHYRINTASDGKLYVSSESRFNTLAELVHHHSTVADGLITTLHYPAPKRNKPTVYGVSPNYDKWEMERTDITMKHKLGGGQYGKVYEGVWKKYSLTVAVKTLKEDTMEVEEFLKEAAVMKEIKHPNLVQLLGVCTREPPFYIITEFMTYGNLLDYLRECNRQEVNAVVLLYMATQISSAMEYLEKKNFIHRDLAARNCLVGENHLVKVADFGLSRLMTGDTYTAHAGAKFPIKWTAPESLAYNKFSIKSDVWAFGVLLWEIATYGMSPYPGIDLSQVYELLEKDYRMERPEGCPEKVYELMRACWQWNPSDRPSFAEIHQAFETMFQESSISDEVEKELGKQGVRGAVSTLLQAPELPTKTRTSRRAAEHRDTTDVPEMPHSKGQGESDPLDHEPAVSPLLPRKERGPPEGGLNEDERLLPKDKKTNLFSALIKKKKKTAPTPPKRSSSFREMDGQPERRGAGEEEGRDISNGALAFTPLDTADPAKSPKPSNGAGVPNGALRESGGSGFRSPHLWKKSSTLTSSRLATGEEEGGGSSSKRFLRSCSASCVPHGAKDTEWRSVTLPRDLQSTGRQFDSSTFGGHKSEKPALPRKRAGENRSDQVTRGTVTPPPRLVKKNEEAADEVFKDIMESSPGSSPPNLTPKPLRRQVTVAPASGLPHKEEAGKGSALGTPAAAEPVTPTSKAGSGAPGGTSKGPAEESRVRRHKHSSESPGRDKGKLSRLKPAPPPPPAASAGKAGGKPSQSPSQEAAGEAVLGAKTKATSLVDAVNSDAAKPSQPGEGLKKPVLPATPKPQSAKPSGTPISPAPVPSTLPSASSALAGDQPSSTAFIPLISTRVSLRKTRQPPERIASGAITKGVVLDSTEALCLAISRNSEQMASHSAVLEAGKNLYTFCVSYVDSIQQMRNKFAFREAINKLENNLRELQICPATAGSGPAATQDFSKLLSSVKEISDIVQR
Sequence of Platelet-derived growth factor receptor beta (Homo sapiens) (P09619 whole entry): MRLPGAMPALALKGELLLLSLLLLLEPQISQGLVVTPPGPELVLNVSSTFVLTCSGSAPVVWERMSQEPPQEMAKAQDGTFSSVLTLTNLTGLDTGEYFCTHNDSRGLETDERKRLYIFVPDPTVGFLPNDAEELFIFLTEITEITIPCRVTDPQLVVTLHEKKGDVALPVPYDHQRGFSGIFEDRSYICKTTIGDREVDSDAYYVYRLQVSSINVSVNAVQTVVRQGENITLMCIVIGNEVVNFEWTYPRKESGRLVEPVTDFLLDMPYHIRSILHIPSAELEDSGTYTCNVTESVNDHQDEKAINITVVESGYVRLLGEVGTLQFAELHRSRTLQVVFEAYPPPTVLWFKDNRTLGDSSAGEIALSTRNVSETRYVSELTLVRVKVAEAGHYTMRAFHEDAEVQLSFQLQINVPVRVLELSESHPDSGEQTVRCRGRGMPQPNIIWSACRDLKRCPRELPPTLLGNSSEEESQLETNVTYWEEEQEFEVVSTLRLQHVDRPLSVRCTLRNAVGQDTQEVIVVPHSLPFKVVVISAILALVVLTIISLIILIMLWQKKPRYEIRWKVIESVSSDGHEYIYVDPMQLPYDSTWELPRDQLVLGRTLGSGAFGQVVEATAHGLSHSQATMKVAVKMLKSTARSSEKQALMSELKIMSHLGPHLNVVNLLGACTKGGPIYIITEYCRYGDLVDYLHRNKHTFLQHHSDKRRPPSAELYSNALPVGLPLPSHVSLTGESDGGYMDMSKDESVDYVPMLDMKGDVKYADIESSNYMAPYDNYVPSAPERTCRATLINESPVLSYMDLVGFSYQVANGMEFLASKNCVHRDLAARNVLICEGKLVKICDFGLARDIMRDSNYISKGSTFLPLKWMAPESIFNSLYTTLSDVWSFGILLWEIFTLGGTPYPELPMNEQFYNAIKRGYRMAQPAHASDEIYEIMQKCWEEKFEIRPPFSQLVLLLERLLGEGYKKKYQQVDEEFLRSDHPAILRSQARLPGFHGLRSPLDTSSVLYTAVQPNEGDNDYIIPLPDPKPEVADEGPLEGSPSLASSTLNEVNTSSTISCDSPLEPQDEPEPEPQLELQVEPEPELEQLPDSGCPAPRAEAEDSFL
Sequence of Mitogen-activated protein kinase kinase kinase kinase 4 (Homo sapiens) (O95819 2-1239 limits assumed): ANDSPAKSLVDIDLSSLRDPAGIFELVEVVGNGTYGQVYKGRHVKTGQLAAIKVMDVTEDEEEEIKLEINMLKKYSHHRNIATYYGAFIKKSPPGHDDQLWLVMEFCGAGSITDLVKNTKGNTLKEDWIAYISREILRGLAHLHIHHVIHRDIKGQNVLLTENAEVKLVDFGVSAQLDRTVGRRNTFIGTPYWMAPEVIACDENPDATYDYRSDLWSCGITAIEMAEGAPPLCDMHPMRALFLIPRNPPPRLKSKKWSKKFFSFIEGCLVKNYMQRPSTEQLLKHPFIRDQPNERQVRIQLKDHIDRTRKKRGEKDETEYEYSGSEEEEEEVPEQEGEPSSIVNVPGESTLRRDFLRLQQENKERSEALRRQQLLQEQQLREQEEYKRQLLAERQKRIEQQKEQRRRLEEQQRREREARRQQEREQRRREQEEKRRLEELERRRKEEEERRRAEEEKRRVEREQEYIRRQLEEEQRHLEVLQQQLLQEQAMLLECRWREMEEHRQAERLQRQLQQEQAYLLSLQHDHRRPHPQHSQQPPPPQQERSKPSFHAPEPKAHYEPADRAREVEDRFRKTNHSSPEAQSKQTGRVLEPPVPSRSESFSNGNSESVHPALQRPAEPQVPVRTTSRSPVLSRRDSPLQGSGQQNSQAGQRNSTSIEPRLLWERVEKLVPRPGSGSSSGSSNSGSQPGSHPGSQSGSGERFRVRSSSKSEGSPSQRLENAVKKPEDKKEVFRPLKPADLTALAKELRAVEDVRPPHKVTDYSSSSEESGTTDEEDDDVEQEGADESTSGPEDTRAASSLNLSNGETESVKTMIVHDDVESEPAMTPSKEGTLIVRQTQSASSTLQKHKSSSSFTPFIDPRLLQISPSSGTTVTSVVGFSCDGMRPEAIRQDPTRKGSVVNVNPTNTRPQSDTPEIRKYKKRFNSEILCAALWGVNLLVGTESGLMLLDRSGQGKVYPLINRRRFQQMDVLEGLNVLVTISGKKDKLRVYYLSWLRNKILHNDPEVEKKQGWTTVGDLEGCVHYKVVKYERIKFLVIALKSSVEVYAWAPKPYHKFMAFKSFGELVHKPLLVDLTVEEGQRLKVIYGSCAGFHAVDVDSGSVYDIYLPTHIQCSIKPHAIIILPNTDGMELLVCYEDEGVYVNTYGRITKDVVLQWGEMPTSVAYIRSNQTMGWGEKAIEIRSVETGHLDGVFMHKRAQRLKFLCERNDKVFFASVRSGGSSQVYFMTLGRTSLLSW
Sequence of Tyrosine-protein kinase ABL2 (Homo sapiens) (P42684 whole entry): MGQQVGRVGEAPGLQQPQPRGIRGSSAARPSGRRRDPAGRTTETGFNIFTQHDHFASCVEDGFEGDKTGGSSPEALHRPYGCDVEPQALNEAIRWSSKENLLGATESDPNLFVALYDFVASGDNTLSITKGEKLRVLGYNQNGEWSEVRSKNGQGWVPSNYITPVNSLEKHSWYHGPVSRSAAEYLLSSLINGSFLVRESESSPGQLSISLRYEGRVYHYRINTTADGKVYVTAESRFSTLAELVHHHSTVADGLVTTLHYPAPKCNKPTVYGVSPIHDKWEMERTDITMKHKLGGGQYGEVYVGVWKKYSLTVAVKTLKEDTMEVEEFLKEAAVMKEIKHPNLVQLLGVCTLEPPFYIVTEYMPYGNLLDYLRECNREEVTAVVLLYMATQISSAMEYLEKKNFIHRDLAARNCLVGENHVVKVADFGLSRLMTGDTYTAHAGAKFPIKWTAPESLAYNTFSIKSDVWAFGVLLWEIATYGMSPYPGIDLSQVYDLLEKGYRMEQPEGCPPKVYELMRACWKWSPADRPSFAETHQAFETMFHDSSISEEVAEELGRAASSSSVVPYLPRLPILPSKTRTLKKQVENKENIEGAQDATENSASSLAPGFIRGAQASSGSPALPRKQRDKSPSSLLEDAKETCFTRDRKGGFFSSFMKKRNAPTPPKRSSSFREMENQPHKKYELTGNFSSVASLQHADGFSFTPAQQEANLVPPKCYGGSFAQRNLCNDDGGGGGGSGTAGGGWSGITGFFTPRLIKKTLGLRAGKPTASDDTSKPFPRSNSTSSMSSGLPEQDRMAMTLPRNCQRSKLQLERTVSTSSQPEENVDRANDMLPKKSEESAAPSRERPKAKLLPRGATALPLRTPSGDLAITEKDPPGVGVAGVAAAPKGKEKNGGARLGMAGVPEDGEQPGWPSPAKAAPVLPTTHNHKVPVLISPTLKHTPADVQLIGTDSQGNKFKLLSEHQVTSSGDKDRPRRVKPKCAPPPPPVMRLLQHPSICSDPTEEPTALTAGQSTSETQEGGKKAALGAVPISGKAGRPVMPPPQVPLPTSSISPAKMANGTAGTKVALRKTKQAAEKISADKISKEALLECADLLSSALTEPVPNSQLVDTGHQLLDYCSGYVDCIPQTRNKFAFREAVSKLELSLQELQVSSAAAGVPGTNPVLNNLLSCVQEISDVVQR
Sequence of Mitogen-activated protein kinase 13 (Homo sapiens) (O15264 whole entry): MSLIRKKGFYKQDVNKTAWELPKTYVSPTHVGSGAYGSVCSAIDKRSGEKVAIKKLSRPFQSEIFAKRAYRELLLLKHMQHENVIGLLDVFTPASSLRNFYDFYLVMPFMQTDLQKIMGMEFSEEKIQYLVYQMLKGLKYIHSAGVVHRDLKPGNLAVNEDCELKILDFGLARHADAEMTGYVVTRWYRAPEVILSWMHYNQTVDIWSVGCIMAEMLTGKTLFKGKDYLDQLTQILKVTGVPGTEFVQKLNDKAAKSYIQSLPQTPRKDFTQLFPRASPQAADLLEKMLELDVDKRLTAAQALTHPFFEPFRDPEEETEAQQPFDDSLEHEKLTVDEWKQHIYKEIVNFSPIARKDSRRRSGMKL

Work on O=C1c2ccc(Nc3ccc(F)cc3F)cc2CCc2ccc(OC[C@H](O)CO)cc21 [Skepinone-L] yielded an Activity [1] of 85%, an Activity [2] of 100% and an Activity [3] of 79%. The Activity [4] was 89%, the Activity [5] was 141% and the Activity [6] was 88%. The Activity [7] was 120%, the Activity [8] was 100% and the Activity [9] was 102%. It also gave an Activity [10] of 96%, an IC50 [11] of 50 nM and an Activity [12] of 106%. The Activity [13] was 96%, the Activity [14] was 96% and the Activity [15] was 100%. It also gave an Activity [16] of 99%, an inhibition at 10 µM [17] of 25% and an Activity [18] of 100%. The Activity [19] was 88%, the Activity [20] was 100% and the Activity [21] was 39%. The Activity [22] was 100%, the Activity [23] was 100% and the Activity [24] was 102%. The Activity [25] was 81%, the Activity [26] was 105% and the Activity [27] was 100%.
